Data on four molecules can be found in PMC11653243, “Enhancing Phototoxicity in BODIPY‐Perylene Charge Transfer Dyads by Combined Iodination and Mesylation” (Chemistry (Weinheim an Der Bergstrasse, Germany), 2024).

Where “and” joins values, the source holds several entries; their conditions need not be identical. Equal values may be shown once. A value given as a limit tells only on which side of the number the result lay.

The nature of assay [1]: DPBF singlet oxygen (ROS) scavenger assay in methanol. The conditions noted are these: 470 nm LED, t=210 seconds relative to t=0, 10 mM DPBF in methanol, absorbance matched. As for the experimental part: Given the impact of the heavy iodine atom on phototoxicity, to confirm if the origin of toxicity is triplet sensitised formation of ^1O2 we carried out ROS scavenger studies with 1,3‐diphenylisobenzofuran (DPBF, Figure 6C). Stock solutions of BODIPY‐perylene were prepared under absorbance matched conditions and a BODIPY‐DPBF solution prepared at concentration of 10 mM DPBF in methanol. The BODIPY‐DPBF solution was irradiated (470 nm) from 0–210 seconds and the absorption spectra recorded every 30 seconds. In the presence of ^1O2, DPBF forms an unstable peroxide, endoperoxide 1, that readily decomposes to colourless 1,2‐dibenzoylbenzene (DBB).[51] This change is detected spectrophotometrically with depletion of DPBF absorbance at 410 nm. The DPBF assay results are represented in Figure 6C as % decrease in absorbance at 410 nm. The values are determined at t=210 seconds relative to the absorbance values recorded prior to irradiation at t=0. […] As expected, the most phototoxic compound, MB2PI, generates the most ^1O2 upon irradiation with a 470 nm LED with a 52 % decrease in DPBF absorbance at 410 nm. […] DPBF is known to be sensitive to light, therefore, to mitigate photodegradation of affecting the assay results, exposure was limited to 3.5 minutes where DPBF absorbance decrease at 410 nm is <10 % at this time point. […] Due to the photo‐vulnerability of DPBF under visible irradiation, this study is limited by a short experimental window and ignores any ROS generation over longer irradiation periods. […]
Figure 6 ROS dye H2DCFDA (A) prior to irradiation and (B) after 5 minutes of continuous irradiation confirming ROS generation. […] A graph of ROS scavenger DPBF response to irradiation of the BODIPY‐perylene compounds is shown in (C) where a decrease in absorbance at 410 nm confirms ^1O2 generation upon photoactivation. Studies were performed with the BODIPY‐perylene compounds under absorbance matched conditions. Values shown indicate the % decrease in absorbance values recorded at t=0 and t=210 seconds and is reported as mean±standard deviation. […]
To assess singlet oxygen (1O2) production and determine if the phototoxicity of our BODIPY complexes was caused by the generation of reactive oxygen species (ROS), a 1O2 scavenger study was completed using 1,3-diphenylisobenzofuran (DPBF). A 20 mM solution of DPBF in methanol was prepared, and stocks of the BODIPY-perylene compounds in DMSO were prepared under absorbance matched concentrations, starting at a 30 µM concentration of each. Test solutions of 1:1, DPBF: BODIPY in methanol (final concentration of 10 mM DPBF) were added to a clear 96 well plate (Nunc) and absorbance was measured using a BMG LABTECH CLARIOstar plate reader. […]

The test system of assay [2] is CHO cells. Description: Dark toxicity, 24 h, alamar blue assay. Conditions: Cricetulus griseus, light or radiation study, without irradiation, 24 h in the dark at 37 °C. In kind it is cell-based, Chinese Hamster. As for the experimental part:
Typical of many BODIPY derivatives, the BODIPY's presented in this work are insoluble in aqueous media, including PBS, and thus the main stock solutions (2–3 mM) were prepared in 100 % DMSO and diluted in media immediately before treating the cells. The maximum concentration for dark toxicity was set at 50 μM to keep the concentration of DMSO ≤1 % (v/v) to maintain cell health. As a result, it was not possible to determine an exact dark IC50 value as concentrations above 50 μM demanded DMSO concentrations that would affect the viability of the cells. Dietzek‐Ivanšić et al previously reported on the effect of DMSO on MCF‐7 cell viability, where cell viability remained high (95 %) in cells treated with 1 % DMSO in cell culture media for 24 h, whereas only 40 % of cells remained viable after treatment with 3.8 % DMSO. Working stocks in cell culture media remained stable within the incubation times used for cellular studies i. e. up to 24 h.[25]
Dark‐ and photo‐toxicity studies were performed by seeding CHO and MCF‐7 cells in clear 96‐well plates (Nunc) and treating with varying concentrations of B2P, MB2P, B2PI and MB2PI. Phototoxicity experiments were carried out using a 470 nm LED. For hypoxic phototoxicity studies, hypoxia was mimicked by adding CoCl2 to the cells prior to irradiation. Cell viability was determined using the alamar blue assay and absorbance measured with a BMG LABTECH CLARIOstar plate reader. […]
For 24 h dark toxicity studies, 50, 10, 5 and 1 µM stock concentrations of B2P, B2PI, MB2P and MB2PI were prepared in media to a final DMSO concentration of ≤1%. 100 µL of each concentration was added to the wells in triplicate and the plates incubated for 24 h in the dark at 37°C. Cell viability of all plate-based studies was assessed using the alamar blue assay. A 10% Resazurin-media solution (alamarBlue, Invitrogen) was added to the wells and incubated for 5 h in the absence of light. Absorbance was measured using a BMG LABTECH CLARIOstar plate reader at 570 nm and 600 nm (corrected for background subtraction). Cell viability is presented as a percentage (%) compared to untreated control wells. Plates were performed in triplicate. […]
(In general: Alamar Blue is a resazurin reagent that responds to reducing activity.)

In assay [3] the test system is MCF‐7 spheroids. Description: Spheroid phototoxicity, 470 nm LED, CellTiter-Glo 3D. It counts as cell-based. Conditions: MCF‐7 3D (spheroids); for IC50: Homo sapiens, MCF7, light or radiation study, 470 nm LED, 5±0.54 J/cm^2 (2.2 mW/cm^2 for 0.5 h); for Photo Index (PI), ratio of dark IC50 to light IC50: 5 J/cm^2, 470 nm LED. As for the experimental part:
3D Cell Studies: Toxicity Assays
Spheroids were seeded in a clear BIOFLOAT™ round bottom 96 well plate (Sarstedt) at 2x10^4 cells per well, centrifuged using the […] for 5 minutes at 700 rpm and allowed to grow and compact for 96 hours. A 2X concentrated solution of B2P, B2PI, MB2P or MB2PI was added in a 1:1 ratio (BODIPY:media) to each well of the 96 well plate, which contained 50 µL phenol red free media, and incubated for 24 h. Prior to irradiation 90% of the media/Ru solution was removed, replaced with fresh phenol red media to dilute the remaining BODIPY (multiple dilution steps, more required for 15 µM and above), and brought to a total volume of 100 µL. Phototoxicity studies in […] spheroids were performed as per the cell monolayer protocol with an irradiation dose of 5 J/cm2 using a 470 nm LED.
Control studies with untreated spheroids confirmed 17 J/cm2 irradiation dose was toxic to spheroids, however the spheroids remained viable after 5 J/cm2 irradiation. CellTiter-Glo 3D cell viability assay (Promega) was used to assess spheroid viability and performed as per the manufacturer’s protocol, where the CellTiter-Glo 3D reagent was added to the spheroid wells
A general note: Cellular ATP, detected with luciferase, serves as a proxy for viable cell number.

With `CC1=C(I)C(C)=[N+]2C1=C(c1ccccc1)c1c(C)c(-c3ccc4c5cccc6cccc(c7cccc3c74)c65)c(C)n1[B-]2(F)F` [B2PI], the “decrease in DPBF absorbance at 410 nm” value in assay [1] is 31%. The IC50 (commonly the midpoint of a concentration-inhibition curve) in assay [2] was greater than 50 µM. Besides, in assay [3], the IC50 was 7.65 µM and the “Photo Index (PI), ratio of dark IC50 to light IC50” value (“Photo Index (PI), ratio” below) is 5.7.
As to `CC1=CC(C)=[N+]2C1=C(c1ccccc1)c1c(C)c(-c3ccc4c5cccc6cccc(c7cccc3c74)c65)c(C)n1[B-]2(F)F` [B2P], the “decrease in DPBF absorbance at 410 nm” value in assay [1] turned out to be 8%. The IC50 in assay [2] was greater than 50 µM; in assay [3], 6.91 µM. Moreover, the “Photo Index (PI), ratio” value in assay [3] stood at 6.6.
Take `CC1=C(c2ccc3c4cccc5cccc(c6cccc2c63)c54)C(C)=[N+]2C1=C(c1c(C)cc(C)cc1C)c1c(C)cc(C)n1[B-]2(F)F` [MB2P]: in assay [1], the “decrease in DPBF absorbance at 410 nm” value worked out at 6%. Besides, the IC50 in assay [2] is greater than 50 µM. In assay [3], the IC50 is 6.26 µM and the “Photo Index (PI), ratio” value is greater than 8.
Turning to `CC1=C(c2ccc3c4cccc5cccc(c6cccc2c63)c54)C(C)=[N+]2C1=C(c1c(C)cc(C)cc1C)c1c(C)c(I)c(C)n1[B-]2(F)F` [MB2PI], the “decrease in DPBF absorbance at 410 nm” value in assay [1] is recorded as 52%. Besides, the IC50 in assay [2] was greater than 50 µM; in assay [3] it was 5.62 µM. In addition, the “Photo Index (PI), ratio” value in assay [3] was > 8.9 and > 8.
